For one assay, the system named is ABA UFR154. Kind of assay: MIC, broth microdilution (CLSI), substance alone or ATB combined with compound at 4 or 8 μg/mL. Type of assay: cell-based, A. baumannii. The note with it: substance alone. In outline: (§1)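 Growth inhibition endpoint, read visually after 16-20 h at 35° C in ambient air. Cation-adjusted Mueller-Hinton broth, inoculum 5·10^5 CFU/mL, CLSI M7-A7 protocol.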

A further assay relates to ABA UFR153. Described as above. The class given is cell-based, A. baumannii. The note with it: substance alone. In outline:
as §1

A further assay relates to ABA UFR152. The assay is described as above. Type of assay: cell-based, A. baumannii. The note with it: substance alone. In a few lines:
as §1

For another assay, the system named is ABA UFR157. The description is as above. Type of assay: cell-based, A. baumannii. The note with it: substance alone. In a few lines: as §1
For a further assay, the system named is ABA UFR155. Described as above. Type of assay: cell-based, A. baumannii. The note with it: substance alone. In a few lines: as §1
The test system of the next assay is ABA 107292. The assay is described as above. Type of assay: cell-based, A. baumannii. The note with it: substance alone. In outline:
as §1

A further assay relates to ABA UFR158. The description is as above. Type of assay: cell-based, A. baumannii. The note with it: substance alone. In outline: as §1
In another assay the test system is ABA UFR161. The description is as above. The class given is cell-based, A. baumannii. The note with it: substance alone. In outline: as §1
The next assay concerns ABA UFR151. The assay is described as above. Type of assay: cell-based, A. baumannii. The note with it: substance alone. In outline:
as §1

The next assay relates to ABA UFR156. The assay is described as above. The class given is cell-based, A. baumannii. The note with it: substance alone. In outline: as §1
The subject of another assay is ABA UFR160. The description is as above. Type of assay: cell-based, A. baumannii. The note with it: substance alone. In a few lines:
as §1

Another assay concerns KPN UFR68. The experiment in a line: Fractional Inhibitory Concentration Index, checkerboard assay. Type of assay: cell-based, K. pneumoniae. In a few lines:
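Two-agent checkerboards of 2-fold dilutions in ca-MHB were inoculated at 5.10^5 CFU/mL and incubated 18 h at 35 °C in air, in duplicate; fosfomycin wells also held 25 μg/ml glucose-6-phosphate. FICI calculated as the sum of combination/alone MIC ratios for each drug.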

Where [1] appears, read: Acinetobacter baumannii, read-out: MIC.

The source of these data is patent US20200024278A1, “COMPOSITION COMPRISING ANTIBIOTIC COMPOUND AND AN HETEROCYCLIC COMPOUND AND THEIR USE IN PREVENTING OR TREATING BACTERIAL INFECTIONS” (MUTABILIS, priority 2016, published 2020).

Structures can show the parent of a compound that is named as a salt. Where two headings read alike, the source gives them in different places.

For the compound `NCCCn1c2c(sc1=O)C1CN(C2)C(=O)N1OS(=O)(=O)O` (stereo not drawn) [Example 10, [5-(3-aminopropyl)-4,9-dioxo-3-thia-5,8,10-triaza-tricyclo[6.2.1.0^2,6]undec-2(6)-en-10-yl] hydrogen sulfate], the MIC (usually the lowest concentration found to suppress growth) was > 32 µg/mL in the assay with ABA UFR154 (setting [1]); 32 µg/mL with ABA UFR153 (setting [1]); 32 µg/mL in the assay on ABA UFR152 (setting [1]); > 32 µg/mL with ABA UFR157 (setting [1]); > 32 µg/mL with ABA UFR155 (setting [1]); > 32 µg/mL in the assay on ABA 107292 (setting [1]). The MIC in the assay on ABA UFR158 (setting [1]), in the assay with ABA UFR161 (setting [1]), in the assay with ABA UFR151 (setting [1]), in the assay with ABA UFR156 (setting [1]) and with ABA UFR160 (setting [1]) was > 32 µg/mL each time.

Regarding `O=C(O)C(F)(F)F.O=C1N2C[C@H](c3scnc3[C@H]2c2ncc[nH]2)N1OS(=O)(=O)[O-].[Na+]` (relative stereo) [Example 6, sodium and 2,2,2-trifluoroacetate [trans-7-(1H-imidazol-3-ium--2-yl)-9-oxo-3-thia-5,8,10-triaza-tricyclo[6.2.1.0^2,6]undeca-2(6),4-dien-10-yl]sulfate], the FIC index min is reported as 1.0 in the assay with KPN UFR68 (compound +ATM); 1.0 with KPN UFR68 (compound +FEP); 0.28 in the assay with KPN UFR68 (compound +FOS); 0.50 with KPN UFR68 (compound +MEM); ≤0.5 in the assay with KPN UFR68 (compound +PIP). In addition, the MIC in the assay on ABA UFR154 is 32 µg/mL; in the assay on ABA UFR153 it was 16 µg/mL; in the assay with ABA UFR152, 32 µg/mL; in the assay on ABA UFR157, 8 µg/mL; in the assay with ABA UFR155, 16 µg/mL; in the assay on ABA 107292 it was >32 µg/mL. Moreover, the MIC stood at 16 µg/mL with ABA UFR158; 32 µg/mL in the assay on ABA UFR161; 32 µg/mL with ABA UFR151; 16 µg/mL in the assay on ABA UFR156; 16 µg/mL in the assay on ABA UFR160.
